Among the data in ChEMBL document CHEMBL1201862, “PubChem BioAssay data set” (2004) are EC50, IC50 and AC50 values, retold here.

Calls of active or inactive are those of the source.

Assay [1] addresses T1, RNA-binding protein pos-1 (Caenorhabditis elegans, UniProt G5EF15).
T1 sequence (G5EF15 whole entry): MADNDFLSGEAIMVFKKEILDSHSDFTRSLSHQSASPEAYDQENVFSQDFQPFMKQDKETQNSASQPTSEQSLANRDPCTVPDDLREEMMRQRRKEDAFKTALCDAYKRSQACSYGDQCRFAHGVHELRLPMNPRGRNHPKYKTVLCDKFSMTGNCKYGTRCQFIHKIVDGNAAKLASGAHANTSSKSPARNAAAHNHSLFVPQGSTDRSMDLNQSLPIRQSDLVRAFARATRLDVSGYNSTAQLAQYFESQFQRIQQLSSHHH
Nature of the assay: inhibitors of POS-1/mex-3 RNA binding, dose response, biochemical, fluorescence polarization (AID 1964).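 Also: purified POS-1 fused to maltose binding protein made in E. coli; potency of compounds blocking POS-1 binding to fluorescent RNA.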 On the technique in general: Fluorescence polarisation rises when a labelled molecule tumbles more slowly, as on binding a larger partner.

In assay [2] the target is T2, Zinc finger protein mex-5 (Caenorhabditis elegans, UniProt Q9XUB2).
T2 sequence (Q9XUB2 whole entry): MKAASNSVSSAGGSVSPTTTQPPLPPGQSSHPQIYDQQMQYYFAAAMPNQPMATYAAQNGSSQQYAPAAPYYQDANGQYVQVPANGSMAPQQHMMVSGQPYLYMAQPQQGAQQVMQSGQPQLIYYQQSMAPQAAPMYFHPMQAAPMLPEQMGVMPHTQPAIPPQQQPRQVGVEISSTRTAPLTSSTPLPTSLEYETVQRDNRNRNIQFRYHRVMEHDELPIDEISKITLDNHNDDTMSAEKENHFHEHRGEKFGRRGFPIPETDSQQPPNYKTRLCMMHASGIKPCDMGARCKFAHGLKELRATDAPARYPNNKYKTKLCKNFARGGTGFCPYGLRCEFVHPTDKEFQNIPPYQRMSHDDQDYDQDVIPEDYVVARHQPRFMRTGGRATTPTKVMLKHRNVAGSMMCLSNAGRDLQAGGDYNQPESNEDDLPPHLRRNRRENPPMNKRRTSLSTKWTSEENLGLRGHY
Nature of the assay: MEX-5/TCR-2 RNA interaction inhibitors, dose response, biochemical, C. elegans, fluorescence polarization (AID 1960).

Assay [3] addresses T3, Short transient receptor potential channel 4 (Mus musculus, UniProt Q9QUQ5).
T3 sequence (Q9QUQ5 whole entry): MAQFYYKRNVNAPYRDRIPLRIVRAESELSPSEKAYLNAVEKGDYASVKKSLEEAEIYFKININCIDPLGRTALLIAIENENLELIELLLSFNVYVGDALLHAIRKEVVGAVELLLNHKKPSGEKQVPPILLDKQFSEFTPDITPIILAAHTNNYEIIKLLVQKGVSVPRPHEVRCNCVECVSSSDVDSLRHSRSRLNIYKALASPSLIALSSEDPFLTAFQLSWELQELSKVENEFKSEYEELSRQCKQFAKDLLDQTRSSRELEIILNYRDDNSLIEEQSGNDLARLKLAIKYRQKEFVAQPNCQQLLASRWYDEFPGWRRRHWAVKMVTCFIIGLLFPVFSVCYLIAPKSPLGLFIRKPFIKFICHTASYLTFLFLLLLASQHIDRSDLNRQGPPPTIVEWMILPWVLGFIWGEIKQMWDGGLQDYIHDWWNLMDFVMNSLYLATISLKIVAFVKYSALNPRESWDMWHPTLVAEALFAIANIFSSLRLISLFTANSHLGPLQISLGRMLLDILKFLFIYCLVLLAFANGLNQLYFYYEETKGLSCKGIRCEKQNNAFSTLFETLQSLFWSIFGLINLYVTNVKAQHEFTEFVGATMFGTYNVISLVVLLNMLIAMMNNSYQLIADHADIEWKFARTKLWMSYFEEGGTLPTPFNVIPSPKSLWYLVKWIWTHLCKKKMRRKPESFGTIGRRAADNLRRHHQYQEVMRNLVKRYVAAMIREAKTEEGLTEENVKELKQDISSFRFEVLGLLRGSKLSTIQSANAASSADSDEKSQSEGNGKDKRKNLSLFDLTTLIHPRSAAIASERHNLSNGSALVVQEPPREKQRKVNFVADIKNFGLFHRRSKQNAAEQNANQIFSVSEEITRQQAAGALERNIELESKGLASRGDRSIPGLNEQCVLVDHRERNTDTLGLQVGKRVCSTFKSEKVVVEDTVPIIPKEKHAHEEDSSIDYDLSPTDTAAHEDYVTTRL
The assay can be described thus: mouse TRPC4 channel activators, dose response, cell-based, HEK293 TRPC4/mu-opioid, Fluo-4 calcium (AID 434937). The assay is classed as functional.

In assay [4] the target is T4, Polyadenylate-binding protein 1 (Homo sapiens, UniProt P11940). Nature of the assay: PABP1 MLLE–PAM2 interaction inhibitors, dose response, miRNA deadenylation inhibitor project, biochemical, fluorescence polarization, Cy5-PAM2 peptide, secondary (AID 602260). The assay is classed as functional. The note with it: read-out: IC50_Mean.
T4 sequence (P11940 whole entry): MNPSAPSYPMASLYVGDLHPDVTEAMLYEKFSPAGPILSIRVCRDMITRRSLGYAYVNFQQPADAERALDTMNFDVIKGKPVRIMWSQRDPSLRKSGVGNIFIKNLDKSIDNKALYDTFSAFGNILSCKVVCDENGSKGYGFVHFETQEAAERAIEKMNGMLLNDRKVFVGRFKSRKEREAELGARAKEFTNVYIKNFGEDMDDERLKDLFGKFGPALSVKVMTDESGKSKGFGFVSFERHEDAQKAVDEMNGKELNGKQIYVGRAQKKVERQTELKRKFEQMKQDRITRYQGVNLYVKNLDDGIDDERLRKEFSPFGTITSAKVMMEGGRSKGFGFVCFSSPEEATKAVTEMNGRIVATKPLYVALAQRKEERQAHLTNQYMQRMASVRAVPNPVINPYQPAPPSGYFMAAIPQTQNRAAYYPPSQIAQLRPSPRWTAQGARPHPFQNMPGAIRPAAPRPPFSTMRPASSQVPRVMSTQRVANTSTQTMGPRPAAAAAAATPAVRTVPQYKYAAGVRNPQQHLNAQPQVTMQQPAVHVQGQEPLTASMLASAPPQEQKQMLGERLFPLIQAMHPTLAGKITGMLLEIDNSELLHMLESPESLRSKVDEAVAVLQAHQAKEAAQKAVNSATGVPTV
Assay [5] has as its target T4, Polyadenylate-binding protein 1. The assay can be described thus: PABP1 MLLE–PAM2 binding inhibitor potency, dose response, biochemical, fluorescence polarization, FITC-PAM2 peptide (AID 602259). The assay is classed as functional. The note with it: read-out: IC50_Mean.
A further assay has as its system HEK293. Nature of the assay: inhibitors of LMP1-driven NF-kB reporter, dose response, cell-based, HEK293, luciferase, cherry-pick (AID 588343). The assay is classed as functional. As to conditions: Homo sapiens.
A short description of assay [6]: Shn3 3'UTR reporter inhibitors, dose response, cell-based, Clone20 osteoblasts, firefly luciferase, cherry-picked (AID 624132).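 Also: firefly luciferase luminescence from reporter carrying the Shn3 3'UTR in osteoblasts.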 The assay is classed as functional.
The next assay concerns the target Genome polyprotein (dengue virus type 2, UniProt P29990). The assay can be described thus: Dengue-2 NS5 methyltransferase inhibitors, primary screen, biochemical, confirmation dose response (AID 588689). The assay is classed as functional.
For assay [7], the system named is Streptococcus sp. 'group A'. Nature of the assay: growth inhibition of control SK(-) GAS strain, dose response, counter-screen for streptokinase expression inhibitor project, luminescence, kanamycin, BacTiterGlo, confirmation (AID 1900). The assay is classed as functional, organism-based. A general note: Counterscreens check selectivity or assay interference.
A short description of assay [8]: Luminescence Cell-Based Dose Response HTS to Identify Inhibitors of 5'UTR Stem-Loop Driven Prion Protein mRNA Translation in H4 Neuroglioblastoma Cells. [Related pubchem assays: 1827 (Project Summary), 1813 (Primary HTS)]. The assay is classed as functional.
Assay [9] is described as follows: cells. The assay is classed as functional, cell-based.
The next assay concerns Streptococcus. Nature of the assay: Group A Streptococcus viability loss, dose response, counter-screen for streptokinase expression inhibitor project, luminescence, BacTiterGlo (AID 1915).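 Also: potency for reduction of bacterial viability or growth.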 The assay is classed as functional, organism-based.
Assay [10] can be described thus: NIH-3T3 fibroblast cytotoxicity, dose response, cytotoxicity control, cell-based, fluorescence, Alamar Blue, secondary assay (AID 2327).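 Also: NIH-3T3 mouse fibroblasts cultured with fluconazole at 8 µg/mL.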 The assay is classed as functional.
The nature of assay [11]: cells. The assay is classed as functional, cell-based. The source holds these as a separate data set.
Assay [12] is described as follows: C. albicans growth with fluconazole, confirmation, fluorescence, retest (AID 2467). The assay is classed as functional, cell-based.
Assay [13] in a line: inhibitors of SNCA 5'UTR-driven reporter translation, confirmation, H4 neuroglioma cells, luminescence (AID 1988). The assay is classed as functional, cell-based.
Assay [14] has as its target T5, Corticotropin-releasing factor receptor 2/Corticotropin-releasing factor-binding protein (Homo sapiens, UniProt P24387+Q13324).
T5 sequence (Q13324 whole entry): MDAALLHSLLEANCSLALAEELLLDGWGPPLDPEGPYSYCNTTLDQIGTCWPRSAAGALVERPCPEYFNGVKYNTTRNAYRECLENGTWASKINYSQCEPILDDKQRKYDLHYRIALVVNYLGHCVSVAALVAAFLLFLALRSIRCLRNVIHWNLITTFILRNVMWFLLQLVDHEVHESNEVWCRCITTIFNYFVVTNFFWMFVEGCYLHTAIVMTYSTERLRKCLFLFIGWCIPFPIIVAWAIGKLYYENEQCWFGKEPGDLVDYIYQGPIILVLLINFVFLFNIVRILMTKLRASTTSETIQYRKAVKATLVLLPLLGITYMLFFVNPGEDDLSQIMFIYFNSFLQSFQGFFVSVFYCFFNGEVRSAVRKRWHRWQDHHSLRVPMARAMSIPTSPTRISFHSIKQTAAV
T5 sequence (P24387 whole entry): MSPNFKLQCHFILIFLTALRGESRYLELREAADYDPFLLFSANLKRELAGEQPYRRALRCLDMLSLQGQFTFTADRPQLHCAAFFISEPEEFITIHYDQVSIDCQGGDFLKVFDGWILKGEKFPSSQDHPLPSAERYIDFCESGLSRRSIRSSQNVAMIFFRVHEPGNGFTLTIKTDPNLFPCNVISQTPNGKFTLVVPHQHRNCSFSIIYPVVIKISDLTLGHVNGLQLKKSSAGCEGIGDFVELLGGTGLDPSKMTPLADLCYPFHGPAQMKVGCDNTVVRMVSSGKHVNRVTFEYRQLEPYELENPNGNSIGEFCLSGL
The assay can be described thus: activators of CRF receptor 2 with binding protein – uHTS hits, confirmation (AID 602473). The assay is classed as functional. The note with it: read-out: EC50_Mean.

The target of assay [15] is T5, Corticotropin-releasing factor receptor 2/Corticotropin-releasing factor-binding protein. Nature of the assay: Dose Response confirmation of uHTS hits for small molecule antagonists of the CRF-binding protein and CRF-R2 receptor complex. The assay is classed as functional. As to conditions: read-out: IC50_Mean.
Assay [16] has as its target T6, DNA repair protein RAD52 homolog (Homo sapiens, UniProt P43351).
T6 sequence (P43351 whole entry): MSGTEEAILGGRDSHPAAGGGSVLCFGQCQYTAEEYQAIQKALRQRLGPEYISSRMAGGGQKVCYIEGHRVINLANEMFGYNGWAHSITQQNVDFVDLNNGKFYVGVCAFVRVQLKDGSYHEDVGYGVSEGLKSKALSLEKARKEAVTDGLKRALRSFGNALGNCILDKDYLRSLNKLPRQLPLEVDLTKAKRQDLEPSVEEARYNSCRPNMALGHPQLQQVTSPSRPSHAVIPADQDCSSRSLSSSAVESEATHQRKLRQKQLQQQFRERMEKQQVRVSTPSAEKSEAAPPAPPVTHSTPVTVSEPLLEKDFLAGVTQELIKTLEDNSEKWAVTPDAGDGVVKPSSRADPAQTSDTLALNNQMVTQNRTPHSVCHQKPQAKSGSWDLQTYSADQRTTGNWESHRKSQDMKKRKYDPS
The assay is classed as functional, biochemical.

Chain of Genome polyprotein (P29990 2492-3391 limits assumed): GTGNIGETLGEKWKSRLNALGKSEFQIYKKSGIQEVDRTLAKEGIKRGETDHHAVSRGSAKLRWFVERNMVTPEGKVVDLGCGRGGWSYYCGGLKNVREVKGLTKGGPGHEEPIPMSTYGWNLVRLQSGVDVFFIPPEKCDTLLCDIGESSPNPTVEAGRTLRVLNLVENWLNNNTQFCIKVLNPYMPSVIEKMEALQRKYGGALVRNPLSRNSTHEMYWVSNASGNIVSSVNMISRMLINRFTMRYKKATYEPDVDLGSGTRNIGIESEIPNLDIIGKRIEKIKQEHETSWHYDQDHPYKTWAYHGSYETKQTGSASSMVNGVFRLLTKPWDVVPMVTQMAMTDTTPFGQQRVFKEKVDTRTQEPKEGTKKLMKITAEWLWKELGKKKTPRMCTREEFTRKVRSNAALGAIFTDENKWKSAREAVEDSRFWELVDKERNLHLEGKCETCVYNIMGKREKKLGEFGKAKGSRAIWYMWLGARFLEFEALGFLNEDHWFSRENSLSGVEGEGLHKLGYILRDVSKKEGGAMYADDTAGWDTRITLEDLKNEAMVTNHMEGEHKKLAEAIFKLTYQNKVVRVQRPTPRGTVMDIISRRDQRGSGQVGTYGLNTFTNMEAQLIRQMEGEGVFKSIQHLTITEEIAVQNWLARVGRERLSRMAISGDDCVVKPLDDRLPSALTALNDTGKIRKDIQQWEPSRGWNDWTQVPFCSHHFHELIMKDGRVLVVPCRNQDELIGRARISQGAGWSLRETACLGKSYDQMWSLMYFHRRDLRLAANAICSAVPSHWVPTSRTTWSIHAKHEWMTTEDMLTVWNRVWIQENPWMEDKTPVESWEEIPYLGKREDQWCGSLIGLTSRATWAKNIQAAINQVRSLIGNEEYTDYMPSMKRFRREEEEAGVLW

Turning to `COC(=O)C1=NN(C(=O)c2ccc(C)cc2)C(O)(c2ccc(Cl)cc2)C1` (stereo not given), the results for the EC50 in [1], in [2] and in [3] were > 300 µM (not active), 37.7 µM (inconclusive) and 6.68 µM (active), respectively. `Cc1ccn2cc(CCNC(=O)C3CC=CCC3C(=O)O)nc2c1` (stereo not given): the EC50 in [3] was 3.76 µM (active). For the compound `COc1cccc(NC(=O)CN(C)C(=O)CSC(=S)N2CCCC2)c1`, the IC50 in [4] and in assay [5] was > 66 µM (inactive) in each case. Regarding `Cc1ccc(S(=O)(=O)N2CCCCC2)cc1NC(=S)NC(=O)c1ccco1`, the IC50 in [4] and in assay [5] was > 66 µM (inactive) in each case. In the case of `Cc1cccc(CN2CCN(Cc3ccc(Cl)cc3)CC2)c1`, the AC50 (as a rule, the midpoint of the concentration-response curve, whichever way the signal moves) with HEK293 was 53.2 µM (active). On to `O=C(CSc1nc2c(c(=O)n1-c1ccc(Br)cc1)SCC2)NCc1ccco1`, for which the AC50 in assay [6] was 43 µM (active). In the case of `O=C(O)c1cc([N+](=O)[O-])c(Sc2nc3ccccc3[nH]2)c([N+](=O)[O-])c1`, the IC50 at Genome polyprotein was > 100 µM (active).

On to `c1ccc(P(c2ccccn2)c2ccccn2)cc1`, for which the IC50 in assay [4] and in assay [5] was > 66 µM (inactive) in each case. In the case of `COc1cccc(C(=O)NC2CCCN(C3Cc4ccccc4C3)C2)c1OC` (stereo not given), in [3], the EC50 is 5.31 µM (active). As to `O=C(/C=C/c1ccco1)Oc1cc(Br)cc(/C=N/NC(=O)c2ccccc2O)c1`, the EC50 is 5.69 µM (active) in assay [7]; 7.54 µM (active) in [8]; 8.58 µM (active) in “cells [9]”; 5.62 µM (active) with Streptococcus; > 160 µM (inactive) in assay [10]; 15.2 µM (active) in “cells [11]”. Further, the EC50 in assay [12] was 1.49 µM (active); in assay [13], 2.62 µM (active). Further, the half-maximal activity concentration (AC50) with HEK293 was 5.21 µM (active). As to `COC(=O)CSC1=NS(=O)(=O)c2ccccc21`, the EC50 in assay [14] is > 53 µM (inactive). Also, the IC50 in assay [15] is > 47.1 µM (inactive); on Genome polyprotein, 23.2 µM (active). In the case of `CCc1c(C2CC2)ncn1Cc1cccc(-c2ccccc2)c1`, in assay [16], the AC50 is 24.5 µM (active). For the compound `OCCN1CCN(Cc2cc(Br)cc(Br)c2O)CC1`, the EC50 in assay [3] was 0.0293 µM (active).

Take `COc1ccccc1N1C(=O)NC(=O)/C(=C\c2cnn(-c3ccccc3)c2)C1=O`: at Genome polyprotein, the IC50 was > 100 µM (active). For `Cc1sc2ncnc(N3CCC(C(=O)Nc4ccccc4C(C)(C)C)CC3)c2c1C`, in the assay with HEK293, the concentration at half-maximal activity (AC50) was 16.8 µM (active).

As to `O=C(Cc1ccc(Br)cc1)N1CCN(c2ccccn2)CC1`, the IC50 in assay [4] and in [5] was > 66 µM (inactive) in each case. Take `Cc1cc(N/N=C/c2ccc(O)cc2)c2cccc(C)c2n1`: in [16], the AC50 is 2.56 µM (active). For the compound `COc1ccc(C(=O)NC(=S)NCc2cccnc2)cc1[N+](=O)[O-]`, the IC50 in assay [4] and in assay [5] was > 66 µM (inactive) in each case.
